For one assay, the target named is T1, integrin α4β7 (Homo sapiens, UniProt P13612+P26010).
T1 sequence (P13612 34-1032): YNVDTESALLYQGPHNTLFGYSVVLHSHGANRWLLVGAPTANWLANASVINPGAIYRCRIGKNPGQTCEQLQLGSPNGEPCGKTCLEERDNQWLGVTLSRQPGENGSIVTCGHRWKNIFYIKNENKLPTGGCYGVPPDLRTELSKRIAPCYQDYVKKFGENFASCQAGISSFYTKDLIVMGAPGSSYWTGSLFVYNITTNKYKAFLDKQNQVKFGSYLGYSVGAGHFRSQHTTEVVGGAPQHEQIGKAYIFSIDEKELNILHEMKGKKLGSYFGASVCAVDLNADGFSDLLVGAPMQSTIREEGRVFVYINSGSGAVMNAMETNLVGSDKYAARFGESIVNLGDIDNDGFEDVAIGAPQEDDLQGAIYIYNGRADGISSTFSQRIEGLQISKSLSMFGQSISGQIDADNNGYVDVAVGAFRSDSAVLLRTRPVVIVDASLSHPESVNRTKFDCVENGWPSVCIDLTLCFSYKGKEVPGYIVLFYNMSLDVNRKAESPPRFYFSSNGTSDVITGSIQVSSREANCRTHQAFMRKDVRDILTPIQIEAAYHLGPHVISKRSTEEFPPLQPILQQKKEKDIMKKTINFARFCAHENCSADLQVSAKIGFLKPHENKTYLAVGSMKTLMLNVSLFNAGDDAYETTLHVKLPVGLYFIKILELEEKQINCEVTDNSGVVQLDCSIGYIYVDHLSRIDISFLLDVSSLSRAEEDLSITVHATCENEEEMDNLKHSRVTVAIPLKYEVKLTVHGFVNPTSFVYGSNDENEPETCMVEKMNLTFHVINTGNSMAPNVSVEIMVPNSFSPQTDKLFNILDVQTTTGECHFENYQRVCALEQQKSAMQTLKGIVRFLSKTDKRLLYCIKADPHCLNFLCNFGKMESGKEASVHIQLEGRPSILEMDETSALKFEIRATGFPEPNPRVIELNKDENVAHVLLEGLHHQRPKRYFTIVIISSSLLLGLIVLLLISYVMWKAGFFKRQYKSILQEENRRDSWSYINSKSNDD
T1 sequence (P26010 20-798): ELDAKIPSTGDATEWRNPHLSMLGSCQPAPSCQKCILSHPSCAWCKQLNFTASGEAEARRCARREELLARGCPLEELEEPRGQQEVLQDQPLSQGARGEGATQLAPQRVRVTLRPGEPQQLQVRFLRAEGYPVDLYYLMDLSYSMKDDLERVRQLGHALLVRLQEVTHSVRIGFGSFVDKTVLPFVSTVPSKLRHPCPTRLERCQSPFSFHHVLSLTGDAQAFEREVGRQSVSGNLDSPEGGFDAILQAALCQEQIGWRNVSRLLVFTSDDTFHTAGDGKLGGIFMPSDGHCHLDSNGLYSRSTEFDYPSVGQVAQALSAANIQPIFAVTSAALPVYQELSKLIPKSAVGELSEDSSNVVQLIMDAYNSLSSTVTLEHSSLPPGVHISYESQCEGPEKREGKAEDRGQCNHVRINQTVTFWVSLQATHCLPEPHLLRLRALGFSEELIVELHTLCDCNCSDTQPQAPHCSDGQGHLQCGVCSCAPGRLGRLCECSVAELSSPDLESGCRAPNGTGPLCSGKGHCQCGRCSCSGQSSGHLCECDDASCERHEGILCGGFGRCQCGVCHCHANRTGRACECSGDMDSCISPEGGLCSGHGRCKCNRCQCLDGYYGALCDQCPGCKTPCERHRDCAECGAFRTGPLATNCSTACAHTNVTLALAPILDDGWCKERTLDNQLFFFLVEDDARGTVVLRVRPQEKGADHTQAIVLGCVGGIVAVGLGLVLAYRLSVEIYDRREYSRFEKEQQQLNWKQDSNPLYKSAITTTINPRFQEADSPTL
Briefly: Whole blood ligand displacement (receptor occupancy): biotinylated rhMAdCAM-1 binding to α4β7+ Th memory cells. Conditions: for selectivity of RO versus α4β1 (fold difference in IC50 between assays): whole blood, α4β7 versus α4β1. It is filed as cell-based. The procedure:
Receptor occupancy (RO) in primary cells was determined by measuring the amount of biotinylated human recombinant MAdCAM-1-FC or human recombinant VCAM-1-Fc bound to selected cell populations using flow cytometry. Human recombinant MAdCAM-1-FC or human recombinant VCAM-1-FC (R&D systems) were biotinylated using commercially available reagents and protocol (Pierce). Whole blood was collected from human donors in sodium heparin tubes. […] Cells were washed twice with 1 mL of 1×DPBS calcium magnesium free(CMF) (ThermoFisher Scientific) and resuspended in 100 μL of DPBS CMF. […] Cells were washed with 1 mL stain buffer-FBS (BD Biosciences) and resuspended in 100 μl stain Buffer-FBS (BD Biosciences) containing 4 mM MnCl2. […] Cells were then washed with 1 mL stain buffer-FBS and resuspended in 100 μl stain buffer-FBS. The cells were incubated in the dark for 30 minutes at room temperature with 1 μl Streptavidin APC (Biolegend 0.2 mg/ml) and a panel of antibodies for the detection of memory T helper a4b7-positive cells subset. And amount of 5.0 μl each of the following antibodies were used; CD45 FITC (BioLegend 200 μg/ml), CD29 APC Cy7 (BioLegend 100 μg/ml), Integrin beta7 PE, (BioLegend concentration 50 μg/mL), CD49d […] (BioLegend 50 μg/mL), CD3 […] (BioLegend 30 μg/mL), CD4 PECy7 (BioLegend 100 μg/mL), CD45RO PerCP, BioLegend 200 μg/mL). The cells were then washed with stain-buffer-FBS and resuspended in 150 μL stain buffer-FBS for acquisition on the flow cytometer (BD FACSCantoTM flow cytometer and […] software). FACS data was acquire by electronic gating on the basis of forward versus side scatter, The cytometer was set to collect 20,000 events in each tube. Cell population were determined using the following markers, CD45+, CD3+, CD4+, CD45RO+, CD49d+, integrin β7, biotinylated ligands.

Another assay deals with integrin α4β1 (Homo sapiens, UniProt P05556+P13612). Description: Whole blood ligand displacement (receptor occupancy): biotinylated rhVCAM-1 binding to α4β7-negative Th memory cells. It is filed as cell-based. Conditions: read-out: VCAM Competition IC50 (receptor occupancy). The procedure:
Receptor occupancy (RO) in primary cells was determined by measuring the amount of biotinylated human recombinant MAdCAM-1-FC or human recombinant VCAM-1-Fc bound to selected cell populations using flow cytometry. Human recombinant MAdCAM-1-FC or human recombinant VCAM-1-FC (R&D systems) were biotinylated using commercially available reagents and protocol (Pierce). Whole blood was collected from human donors in sodium heparin tubes. […] Cells were washed twice with 1 mL of 1×DPBS calcium magnesium free(CMF) (ThermoFisher Scientific) and resuspended in 100 μL of DPBS CMF. […] Cells were washed with 1 mL stain buffer-FBS (BD Biosciences) and resuspended in 100 μl stain Buffer-FBS (BD Biosciences) containing 4 mM MnCl2. […] Cells were then washed with 1 mL stain buffer-FBS and resuspended in 100 μl stain buffer-FBS. The cells were incubated in the dark for 30 minutes at room temperature with 1 μl Streptavidin APC (Biolegend 0.2 mg/ml) and a panel of antibodies for the detection of memory T helper a4b7-positive cells subset. And amount of 5.0 μl each of the following antibodies were used; CD45 FITC (BioLegend 200 μg/ml), CD29 APC Cy7 (BioLegend 100 μg/ml), Integrin beta7 PE, (BioLegend concentration 50 μg/mL), CD49d […] (BioLegend 50 μg/mL), CD3 […] […] Cell population were determined using the following markers, CD45+, CD3+, CD4+, CD45RO+, CD49d+, integrin β7, biotinylated ligands.

Where [1] appears, read: α4β7 Th memory cells, human whole blood, read-out: MAdCAM-1 Competition IC50 (receptor occupancy).

Where “and” joins values, the source holds several entries; their conditions need not be identical. Identical values can stand only once. Like-named read-outs stand apart in the source and are kept apart here. Numbered stars: 1 amine (or outer) side, 2 acyl side, 3 side chain; on linkers, the order of the positions; unused ones are H or OH. Square brackets hold non-standard residues; d marks the D form. Peptide text beside a SMILES is read from it. X1 = O=C(c1ccc(-c2ccc(N3CCNCC3)cc2)c(CN[*:1])c1)[*:2]

Sequence of integrin α4β1 (P05556 21-798, one chain of several): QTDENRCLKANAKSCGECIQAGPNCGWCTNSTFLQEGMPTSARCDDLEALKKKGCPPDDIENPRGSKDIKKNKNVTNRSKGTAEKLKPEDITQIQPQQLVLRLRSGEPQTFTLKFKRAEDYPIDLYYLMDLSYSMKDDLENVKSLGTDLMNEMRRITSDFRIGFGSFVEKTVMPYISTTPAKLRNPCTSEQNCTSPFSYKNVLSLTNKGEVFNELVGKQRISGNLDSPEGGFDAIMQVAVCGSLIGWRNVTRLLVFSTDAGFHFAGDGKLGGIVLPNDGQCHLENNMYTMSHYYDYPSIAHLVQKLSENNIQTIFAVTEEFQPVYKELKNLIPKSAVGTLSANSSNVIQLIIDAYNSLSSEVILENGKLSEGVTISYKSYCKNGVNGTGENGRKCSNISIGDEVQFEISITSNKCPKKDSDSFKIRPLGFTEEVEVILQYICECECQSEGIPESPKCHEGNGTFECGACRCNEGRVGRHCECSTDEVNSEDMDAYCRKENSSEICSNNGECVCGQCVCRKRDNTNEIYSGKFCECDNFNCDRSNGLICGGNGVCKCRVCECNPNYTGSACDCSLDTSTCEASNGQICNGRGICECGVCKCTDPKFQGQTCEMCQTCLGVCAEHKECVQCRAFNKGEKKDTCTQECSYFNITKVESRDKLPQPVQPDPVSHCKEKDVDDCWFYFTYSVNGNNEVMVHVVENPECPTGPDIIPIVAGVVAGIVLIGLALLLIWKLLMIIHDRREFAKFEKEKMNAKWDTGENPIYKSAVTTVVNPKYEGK

One may read the IC50 as the concentration that gives 50% inhibition. As to `CC(C)C[C@@H]1NC(=O)c2ccc(-c3ccc(N4CCN(Cc5cccc(CN6CCN(c7ccc(-c8ccc9cc8CNC(=O)[C@@H]8CCCN8C(=O)[C@H](C)NC(=O)[C@H]([C@@H](C)O)NC(=O)[C@H](CC(=O)O)NC(=O)[C@H](CC(C)C)NC9=O)cc7)CC6)c5)CC4)cc3)c(c2)CNC(=O)[C@@H]2CCCN2C(=O)[C@H](C)NC(=O)[C@H]([C@@H](C)O)NC(=O)[C@H](CC(=O)O)NC1=O` [Compound 18], on integrin α4β7 (human whole blood), the “α4β7 RO IC50” value was “sub-micromolar”. Besides, the “selectivity of RO versus α4β1 (fold difference in IC50 between assays)” value on integrin α4β7 is “selectivity versus α4β1”. Besides, the IC50 on integrin α4β7 (setting [1]) is 25 nM and 24.7 nM; at integrin α4β1, 123 nM.
Take `CC(C)C[C@@H]1NC(=O)c2ccc(-c3ccc(N4CCNCC4)cc3)c(c2)CNC(=O)[C@@H]2CCCN2C(=O)[C@H](C)NC(=O)[C@H]([C@@H](C)O)NC(=O)[C@H](CC(=O)O)NC1=O` [Compound 8] (cyclo(P[X1]LDTA)): the “competition with MAdCAM-1 on α4β7-positive primary cells, result in words” value at integrin α4β7 (human whole blood) is “relatively weak concentration-response curve”. The IC50 at integrin α4β7 (human whole blood, read-out: α4β7 RO IC50) is above 4000 nM; on integrin α4β7 (setting [1]), above 4000 nM; on integrin α4β1, above 4000 nM. Further, the “selectivity of RO versus α4β1 (fold difference in IC50 between assays)” value on integrin α4β7 is recorded as “no selectivity”.

These data come from patent US11286281B2, “Homodetic cyclic peptides targeting alpha-4-beta-7 integrin” (priority 2017, dated 2022).
